According to ChEMBL document CHEMBL1201862, “PubChem BioAssay data set” (2004):
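Cells were grown in 96-well plates and exposed to each compound for 48 hours at five concentrations; endpoints were interpolated linearly between bracketing concentrations, or set to the highest concentration if not reached. The concentration for 50% growth inhibition is given as GI50.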 Activity calls are given as the source filed them. Cut-off read from the data, not from the text of the source: active = GI50 up to about 1.1 µM and inactive = higher.

What was measured:
Experiment in all cases: NCI tumour cell line growth inhibition, 48 h
T47D = tested on: T47D
NCI/ADR-RES = tested on: NCI/ADR-RES
786-0 = tested on: 786-0
OVCAR-5 = tested on: OVCAR-5
UACC-257 = tested on: UACC-257
EKVX = tested on: EKVX
CCRF-CEM = tested on: CCRF-CEM
TK-10 = tested on: TK-10
A549 = tested on: A549
RPMI-8226 = tested on: RPMI-8226
OVCAR-3 = tested on: OVCAR-3
MOLT-4 = tested on: MOLT-4
HCC 2998 = tested on: HCC 2998
SNB-75 = tested on: SNB-75
UO-31 = tested on: UO-31
SK-MEL-2 = tested on: SK-MEL-2
SF-295 = tested on: SF-295
CAKI-1 = tested on: CAKI-1
UACC-62 = tested on: UACC-62
Malme-3M = tested on: Malme-3M
PC-3 = tested on: PC-3
SF-539 = tested on: SF-539
HOP-62 = tested on: HOP-62
MDA-MB-231 = tested on: MDA-MB-231
HT-29 = tested on: HT-29
NCI-H23 = tested on: NCI-H23
MDA-N = tested on: MDA-N
MCF7 = tested on: MCF7
SK-MEL-28 = tested on: SK-MEL-28
NCI-H522 = tested on: NCI-H522
OVCAR-8 = tested on: OVCAR-8
NCI-H226 = tested on: NCI-H226
KM12 = tested on: KM12
OVCAR-4 = tested on: OVCAR-4
HL-60 = tested on: HL-60
HCT-15 = tested on: HCT-15
HCT-116 = tested on: HCT-116
A498 = tested on: A498
SF-268 = tested on: SF-268
ACHN = tested on: ACHN
DU-145 = tested on: DU-145
NCI-H460 = tested on: NCI-H460
Hs-578T = tested on: Hs-578T
SN12C = tested on: SN12C
COLO 205 = tested on: COLO 205
M14 = tested on: M14
RXF 393 = tested on: RXF 393
SK-OV-3 = tested on: SK-OV-3
SR = tested on: SR
SK-MEL-5 = tested on: SK-MEL-5
LOX IMVI = tested on: LOX IMVI
SNB-19 = tested on: SNB-19
SW-620 = tested on: SW-620
K562 = tested on: K562
IGROV-1 = tested on: IGROV-1
MDA-MB-435 = tested on: MDA-MB-435
U-251 = tested on: U-251

Cn1c(=O)oc2cc(Br)ccc21
GI50 (T47D): > 100 µM (inactive)
GI50 (NCI/ADR-RES): > 100 µM (inactive)
GI50 (786-0): > 100 µM (inactive)
GI50 (OVCAR-5): > 100 µM (inactive)
GI50 (UACC-257): > 100 µM (inactive)
GI50 (EKVX): 91.4 µM (inactive)
GI50 (CCRF-CEM): > 100 µM (inactive)
GI50 (TK-10): > 100 µM (inactive)
GI50 (A549): > 100 µM (inactive)
GI50 (RPMI-8226): > 100 µM (inactive)
GI50 (OVCAR-3): > 100 µM (inactive)
GI50 (MOLT-4): > 100 µM (inactive)
GI50 (HCC 2998): > 100 µM (inactive)
GI50 (SNB-75): > 100 µM (inactive)
GI50 (UO-31): > 100 µM (inactive)
GI50 (SK-MEL-2): > 100 µM (inactive)
GI50 (SF-295): > 100 µM (inactive)
GI50 (CAKI-1): > 100 µM (inactive)
GI50 (UACC-62): > 100 µM (inactive)
GI50 (Malme-3M): > 100 µM (inactive)
GI50 (PC-3): > 100 µM (inactive)
GI50 (SF-539): > 100 µM (inactive)
GI50 (HOP-62): > 100 µM (inactive)
GI50 (MDA-MB-231): > 100 µM (inactive)
GI50 (HT-29): > 100 µM (inactive)
GI50 (NCI-H23): > 100 µM (inactive)
GI50 (MDA-N): > 100 µM (inactive)
GI50 (MCF7): > 100 µM (inactive)
GI50 (SK-MEL-28): > 100 µM (inactive)
GI50 (NCI-H522): > 100 µM (inactive)
GI50 (OVCAR-8): > 100 µM (inactive)
GI50 (NCI-H226): > 100 µM (inactive)
GI50 (KM12): > 100 µM (inactive)
GI50 (OVCAR-4): > 100 µM (inactive)
GI50 (HL-60): > 100 µM (inactive)
GI50 (HCT-15): > 100 µM
GI50 (HCT-116): > 100 µM (inactive)
GI50 (A498): > 100 µM (inactive)
GI50 (SF-268): > 100 µM (inactive)
GI50 (ACHN): > 100 µM (inactive)
GI50 (DU-145): > 100 µM (inactive)
GI50 (NCI-H460): > 100 µM (inactive)
GI50 (Hs-578T): > 100 µM (inactive)
GI50 (SN12C): > 100 µM (inactive)
GI50 (COLO 205): > 100 µM (inactive)
GI50 (M14): > 100 µM (inactive)
GI50 (RXF 393): > 100 µM (inactive)
GI50 (SK-OV-3): > 100 µM (inactive)
GI50 (SR): > 100 µM (inactive)
GI50 (SK-MEL-5): > 100 µM (inactive)
GI50 (LOX IMVI): > 100 µM (inactive)
GI50 (SNB-19): > 100 µM (inactive)
GI50 (SW-620): > 100 µM (inactive)
GI50 (K562): > 100 µM (inactive)
GI50 (IGROV-1): > 100 µM (inactive)
GI50 (MDA-MB-435): > 100 µM (inactive)

COc1ccc2c(c1)c[n+](C)c1c3cc(OC)c(OC)cc3ccc21
GI50 (NCI/ADR-RES): > 100 µM (inactive)
GI50 (A549): 1.54 µM (inactive)
GI50 (CAKI-1): 11.9 µM (inactive)
GI50 (MDA-MB-231): 1.42 µM (inactive)
GI50 (U-251): 1.02 µM (active)
GI50 (MDA-N): 1.6 µM (inactive)
GI50 (NCI-H522): 1.02 µM (active)
GI50 (OVCAR-8): 1.22 µM (inactive)
GI50 (HCT-15): 14 µM
GI50 (SF-268): 1.45 µM (inactive)
GI50 (Hs-578T): 2.05 µM (inactive)
GI50 (SN12C): 1.73 µM (inactive)
GI50 (COLO 205): 1.67 µM (inactive)
GI50 (SR): 2.1 µM (inactive)
GI50 (LOX IMVI): 1.32 µM (inactive)
GI50 (SNB-19): 3.21 µM (inactive)
GI50 (SW-620): 1.37 µM (inactive)
